Like-named read-outs stand apart in the source and are kept apart here.
What was measured:
[1] = Ferric-Reducing Antioxidant Potential (FRAP) assay; type: biochemical; details: pH 3.6, 593 nm
Procedure: (§1) The stock solutions of the reference antioxidants (ascorbic acid, Trolox, EDTA-Na2) and compounds 3a–j were prepared by dissolving the solid powders in DMSO, obtaining 2 mM stock solutions. Following this, an additional set of solutions (0.2 mM) for each compound was obtained by dilution with DMSO. Absorption spectra of the tested compounds covering the range from 400 nm to 800 nm were recorded, indicating no absorption peaks near the wavelengths employed in the experiments. All measurements in the presented assays were made against blank samples. To quantify the activity of the compounds 3a–j, for the antiradical assays (DPPH and ABTS) and ferrous ion chelation, IC50 was calculated using Equation (1), while for the electron transfer assays (TAC, RP, FRAP and CUPRAC), the reference number of mole equivalent activity for each compound was calculated using Equation (2). (1) radical scavenging (%)=control absorbance−sample absorbance/control absorbance×100 (2) equivalents of control=sample absorbance/control absorbance
The Ferric-Reducing Antioxidant Potential (FRAP) assay relies on the transfer of an electron from the antioxidant being assessed to Fe^3+, resulting in its conversion to Fe^2+. The resulting Fe^2+ ions are then chelated by 2,4,6-tripyridyl-s-triazine, giving a blue-colored complex, with an absorption maximum at λ = 593 nm. A 500 µL amount of the solutions (0.2 mM) of compounds and reference compounds was mixed with 600 µL FRAP reagent and 1200 µL acetate buffer (0.3 M, pH = 3.6), according to previous reports. The resulting solutions were mixed well in the dark, and their absorbance was measured spectrophotometrically.

[2] = Reducing power (RP) assay; type: biochemical; details: 50 °C, 20 min, pH 6.6
Procedure: as §1
In the reducing power (RP) assay, the tested compounds performed the reduction of ferric ions from potassium ferricyanide, forming ferrocyanide, which gives a blue complex. The protocol followed is an adaptation of previously reported methodologies. In glass test tubes, 1000 µL of solutions containing compounds and standards measured from the 0.2 mM stock solutions were mixed with 400 µL of phosphate buffer (0.2 M, pH = 6.6) and 400 µL of K3[Fe(CN)6] solution (1% w/v). The tubes were sealed and incubated for 20 min in a water bath at 50 °C. After cooling to room temperature, 500 µL of trichloroacetic acid (10% w/w) was added to all test tubes The resulting mixtures were left for 0.5 h at room temperature. Subsequently, 250 µL of the resulting solutions were mixed with 140 µL of FeCl3 solution (0.1% w/v) and 1000 µL of distilled water, and the absorbance of the resulting solutions was determined at λ = 695 nm.

[3] = Ferrous ion chelation assay (ferrozine); type: biochemical; parameters: key: - represents negligible activity
Procedure: as §1
To evaluate the ability of compounds to chelate ferrous ions, an assay was performed using an adaptation of Dinis et al.’s initial report. The solutions of the tested compounds (2 mM) were mixed well with 500 µL of FeSO4 (0.125 mM), and 500 µL of ferrozine 0.315 mM. After 10 min, the absorbance of the samples was determined spectrophotometrically at λ = 562 nm. EDTA-Na2 was used as a positive control, due to its exceptional ion chelation properties.

[4] = CUPRAC (CUPric-Reducing Antioxidant Capacity) assay; type: biochemical; details: 30 min, 450 nm
Procedure: as §1
The electron-donating capacity of compounds was assessed using the CUPRAC (CUPric-Reducing Antioxidant Capacity) method. The protocol for this assay is a modification of the reports of Alam et al., Özyürek et al., and Apak et al.. Volumes of 250 µL of CuCl2 10 mM, 1 mL of ammonium acetate buffer 1 M, and 250 µL of 7.5 mM neocuproine in ethanol were mixed with 125 µL of samples and reference compound solutions (0.2 mM). The mixtures were shaken for 30 min in the dark; after that, their absorbance was determined spectrophotometrically at λ = 450 nm.

[5] = tested on: normal human foreskin fibroblasts (BJ); test: Alamar Blue cytotoxicity assay, BJ cells; type: cell-based; details: for IC50: 48 h exposure, Alamar Blue
Procedure: (§2) BJ cells were maintained in Dulbecco’s modified Eagle’s medium (DMEM) with low glucose (1 g/L), while the A549 cells were seeded in DMEM with high glucose (5 g/L). All media were supplemented with 10% fetal bovine serum (FBS) and 1% Penicillin/Streptomycin. […] Cellular media were refreshed every other day. Cells were either subcultured or used in experiments once they reached a confluency of 80–90%.
(§3) The cytotoxicity of the synthesized compounds was evaluated by Alamar Blue (AB) assays performed on both cell lines, A549 and BJ, after a 48 h exposure, as previously reported.
(§4) Briefly, approximately 7000 A549 cells and 4000 normal BJ cells were seeded in 100 µL cellular media in 96-well plates to achieve a confluency of 70–80% at the end of the experiment and left to attach overnight before exposure. […] Post-exposure, the media were removed, and the AB assay was performed, with cells being incubated with a 200 µM solution of resazurin for 4 h. The obtained fluorescence was measured at λexcitation = 530/25; λemission = 590/35.
(§5) The experiments included three biological replicates, each one including three technical replicates. The negative control (NC) consisted of cells exposed to a cell culture medium containing 0.2% DMSO and was used for data normalization (100%).

[6] = DPPH radical-scavenging assay; type: biochemical; details: 30 min in the dark, 517 nm; read-out: IC50 against DPPH•
Procedure: as §1
The DPPH˙ (2,2-diphenyl-1-picrylhydrazyl) radical-scavenging assay, initially reported by Brand-Williams et al., relies on transferring a hydrogen atom from the antioxidant substrate being analyzed to the stable violet radical of DPPH˙. This action converts DPPH˙ into a nonradical stable yellow compound. The reduction in absorbance of the DPPH˙ at λ = 517 nm corresponds to the quantity of neutralized reagent. To perform the DPPH assay, we took 50, 75, 100, 125, and 150 µL of each sample from their 0.2 mM stock solutions, then we adjusted the volumes with DMSO to ensure all samples reached a uniform final volume. These solutions were mixed with 1 mL of DPPH reagent and incubated in the dark for 30 min, as presented in literature reports.

[7] = Total Antioxidant Capacity (TAC) assay; type: biochemical; details: 95 °C, 1.5 h, 695 nm
Procedure: as §1
The Total Antioxidant Capacity (TAC) assay was conducted following the methodology outlined in our previous publication, which was based on initial reports from the literature. A volume of 10 mL of the reagent (0.6 M H2SO4, 28 mM Na3PO4 and 4 mM (NH4)6Mo7O24) and 1000 µL of the compound and standard solutions dispensed from the 2 mM stock solutions were mixed in sealed glass test tubes and incubated in a water bath at 95 °C for 1.5 h. After cooling the test tubes to room temperature, 1000 µL of each solution was diluted with 1000 µL of water. The absorbance of the solutions was then measured at λ = 695 nm.

[8] = tested on: human pulmonary malignant cells (A549); test: Alamar Blue cytotoxicity assay, A549 cells; type: cell-based; details: for IC50: 48 h exposure, Alamar Blue, read-out: IC50 (±SD) A549; for Selectivity Index: ratio between the calculated IC50 on BJ and A549 cells, 48 h
Procedure: as §2, §3, §4, §5

[9] = ABTS radical cation decolorization assay; type: biochemical; details: 10 min, pH 7.4, 734 nm; read-out: IC50 against ABTS•+
Procedure: as §1
The decolorization assay of the green ABTS^•+ (2,2′-azinobis-(3-ethylbenzothiazoline-6-sulfonic acid) to ABTS, based on the report of Re et al., was conducted following our group’s published report. The chemical stability of the ABTS^•+ reagent prior to use was checked at λ = 734 nm over one hour, ensuring a consistent absorption (approximately equal to 0.7). The reagent was prepared in potassium phosphate buffer (0.1 M, pH = 7.4) and activated overnight using MnO2 [17]. In all cuvettes, we added 100 μL of the tested compound solutions (0.2 mM) in increasing concentrations up to 200 µL and 2000 µL of the ABTS^•+ reagent. The resulting mixtures were thoroughly shaken for 10 min at room temperature, in the absence of light. The optical absorbance of the resulting mixtures was then measured by spectrophotometry at λ = 734 nm.

Oc1ccc(-c2csc(-c3csc(-c4ccccc4)n3)n2)cc1O [Compound 3i, 4-(2′-phenyl-[2,4′-bithiazol]-4-yl)benzene-1,2-diol]
FRAP Eq Trolox [1]: 1.14 Eq Trolox
RP Eq Ascorbic Acid [2]: 1.63 Eq Ascorbic Acid
RP Eq Trolox [2]: 1.35 Eq Trolox
ferrous ion chelation percent ([3]; 0.25 µM): -
ferrous ion chelation percent ([3]; 0.5 µM): -
ferrous ion chelation percent ([3]; 1 µM): -
ferrous ion chelation percent ([3]; 1.5 µM): -
ferrous ion chelation percent ([3]; 2 µM): -
CUPRAC Eq Trolox [4]: 1.84 Eq Trolox
IC50 ([5]; Homo sapiens, Fibroblast): 29.4 µM
IC50 [6]: 45.9 µM
TAC Eq Ascorbic Acid [7]: 0.51 Eq Ascorbic Acid
IC50 ([8]; Homo sapiens, A549): 5.18 µM
Selectivity Index [8]: 5.67
IC50 [9]: 14.1 µM

Oc1ccc(-c2csc(-c3ccccc3)n2)cc1O [Compound 3b]
FRAP Eq Trolox [1]: 1.07 Eq Trolox
RP Eq Ascorbic Acid [2]: 1.60 Eq Ascorbic Acid
RP Eq Trolox [2]: 1.33 Eq Trolox
ferrous ion chelation percent ([3]; 0.25 µM): -
ferrous ion chelation percent ([3]; 0.5 µM): -
ferrous ion chelation percent ([3]; 1 µM): -
ferrous ion chelation percent ([3]; 1.5 µM): -
ferrous ion chelation percent ([3]; 2 µM): -
CUPRAC Eq Trolox [4]: 2.27 Eq Trolox
IC50 [5]: 78.6 µM
IC50 [6]: 50.2 µM
TAC Eq Ascorbic Acid [7]: 1.00 Eq Ascorbic Acid
IC50 [8]: 8.91 µM
Selectivity Index [8]: 8.82
IC50 [9]: 14 µM

Cc1nc(-c2ccc(O)c(O)c2)cs1 [Compound 3a]
FRAP Eq Trolox [1]: 0.95 Eq Trolox
RP Eq Ascorbic Acid [2]: 1.73 Eq Ascorbic Acid
RP Eq Trolox [2]: 1.44 Eq Trolox
ferrous ion chelation percent ([3]; 0.25 µM): -
ferrous ion chelation percent ([3]; 0.5 µM): -
ferrous ion chelation percent ([3]; 1 µM): -
ferrous ion chelation percent ([3]; 1.5 µM): -
ferrous ion chelation percent ([3]; 2 µM): -
CUPRAC Eq Trolox [4]: 3.17 Eq Trolox
toxicity on BJ cells ([5]; 48 h, result in words): no significant toxicity on BJ cells
IC50 [5]: > 100 µM
IC50 [6]: 51.3 µM
TAC Eq Ascorbic Acid [7]: 0.38 Eq Ascorbic Acid
IC50 [8]: 31.5 µM
Selectivity Index [8]: >3.17
IC50 [9]: 12 µM

Cc1ccc(-c2nc(-c3nc(-c4ccc(O)c(O)c4)cs3)cs2)cc1 [Compound 3j, 4-(2′-(p-tolyl)-[2,4′-bithiazol]-4-yl)benzene-1,2-diol]
FRAP Eq Trolox [1]: 1.06 Eq Trolox
RP Eq Ascorbic Acid [2]: 1.81 Eq Ascorbic Acid
RP Eq Trolox [2]: 1.50 Eq Trolox
ferrous ion chelation percent ([3]; 0.25 µM): -
ferrous ion chelation percent ([3]; 0.5 µM): -
ferrous ion chelation percent ([3]; 1 µM): -
ferrous ion chelation percent ([3]; 1.5 µM): -
ferrous ion chelation percent ([3]; 2 µM): -
CUPRAC Eq Trolox [4]: 1.61 Eq Trolox
IC50 ([5]; Homo sapiens, Fibroblast): 24.2 µM
IC50 [6]: 49.6 µM
TAC Eq Ascorbic Acid [7]: 0.36 Eq Ascorbic Acid
IC50 ([8]; Homo sapiens, A549): 4.28 µM
Selectivity Index [8]: 5.67
IC50 [9]: 17.7 µM

Cc1cccc(-c2nc(-c3ccc(O)c(O)c3)cs2)c1 [Compound 3e, 4-(2-(m-tolyl)thiazol-4-yl)benzene-1,2-diol]
FRAP Eq Trolox [1]: 1.07 Eq Trolox
RP Eq Ascorbic Acid [2]: 1.64 Eq Ascorbic Acid
RP Eq Trolox [2]: 1.37 Eq Trolox
ferrous ion chelation percent ([3]; 0.25 µM): -
ferrous ion chelation percent ([3]; 0.5 µM): -
ferrous ion chelation percent ([3]; 1 µM): -
ferrous ion chelation percent ([3]; 1.5 µM): -
ferrous ion chelation percent ([3]; 2 µM): -
CUPRAC Eq Trolox [4]: 3.13 Eq Trolox
IC50 ([5]; Homo sapiens, Fibroblast): 46.8 µM
IC50 [6]: 46.8 µM
TAC Eq Ascorbic Acid [7]: 0.91 Eq Ascorbic Acid
IC50 ([8]; Homo sapiens, A549): 6.46 µM
Selectivity Index [8]: 7.23
IC50 [9]: 13.9 µM
